{"source": "patent US12115373B2", "about": "“Methods for reducing the risk of strokes by pharmacotherapy to reduce the number and duration of atrial fibrillations” (Xyra, LLC, priority 2022, dated 2024)", "origin": "cited, not measured here", "conditions": "in 2016; reported by the Market Insider; cited from earlier work", "data": [{"smiles": "O=C(NC[C@H]1CN(c2ccc(N3CCOCC3=O)cc2)C(=O)O1)c1ccc(Cl)s1", "note": "[Xarelto, rivaroxaban]", "values": [{"measurement": "adverse events", "value": "over 15,000"}]}]}
